Data on nine molecules can be found in ChEMBL document CHEMBL1122176, “Synthesis and antitumor activity of 10-alkyl-10-deazaminopterins. A convenient synthesis of 10-deazaminopterin” (J Med Chem, 1982).

In brackets after ≈: the same amount, converted by molar mass.

In data set [1] the test system is L1210. Description: Antitumor activity expressed as mean survival time against L1210 leukemia cells in mice after sc administration at dose 15 mg/kg. The note with it: route subcutaneous.
Data set [2] has as its system L1210. Nature of the data set: Minimum inhibitory concentration of compound was tested for growth inhibition of L1210 cells. It is filed as functional. The note with it: Mus musculus.
Data set [3] deals with Enterococcus faecium. Description: Concentration required for the 50% growth inhibition of Streptococcus faecium MTX resist organism at 1 ng/mL folate concentration. In kind it is functional, organism-based.
Data set [4] is described as follows: Influx velocity of the compound. In kind it is ADME.
Data set [5] concerns the target T1, Dihydrofolate reductase (Mus musculus, UniProt P00375).
T1 sequence (P00375 whole entry): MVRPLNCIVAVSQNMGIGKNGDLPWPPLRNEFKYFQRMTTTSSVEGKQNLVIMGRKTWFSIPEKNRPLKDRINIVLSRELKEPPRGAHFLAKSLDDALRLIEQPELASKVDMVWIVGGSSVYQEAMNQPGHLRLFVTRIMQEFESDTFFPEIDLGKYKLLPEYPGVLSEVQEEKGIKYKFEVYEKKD
Description: Tested for inhibition of dihydrofolate reductase enzyme.

Data set [6] can be described thus: Concentration required for the 50% growth inhibition of Streptococcus faecium ATCC 8043 organism at 1 ng/mL folate concentration.
Data set [7] has as its system L1210. Nature of the data set: Antitumor activity expressed as mean survival time against L1210 leukemia cells in mice after sc administration at dose 3 mg/kg. The note with it: route subcutaneous.
Another data set relates to Lacticaseibacillus casei. Nature of the data set: Concentration required for the 50% growth inhibition of Lactobacillus casei ATCC 7469 organism at 1 ng/mL folate concentration. In kind it is functional, organism-based.
The subject of data set [8] is L1210. Description: % increase in lifespan was measured at 3 mg/kg dosage after sc administration. The note with it: Mus musculus.
Data set [9] relates to Enterococcus faecium. Description: Concentration required for the 50% growth inhibition of Streptococcus faecium ATCC 8043 organism at 1 ng/mL folate concentration. In kind it is functional, organism-based.
Data set [10] is described as follows: The efflux rate constant of the compound. In kind it is ADME.
Data set [11] in a line: Michaelis constant of compound was determined from affinity towards carrier component of transport mechanism.
Data set [12] addresses Dihydrofolate reductase (Lactobacillus casei) (UniProt P00381). Nature of the data set: Concentration required for the 50% growth inhibition of Lactobacillus casei dihydrofolate reductase enzyme. Conditions: Lacticaseibacillus casei.
The subject of data set [13] is L1210. Description: % increase in lifespan was measured at 15 mg/kg dosage after sc administration. Conditions: Mus musculus.
Data set [14] relates to L1210. Description: Minimum inhibitory concentration of compound was tested for growth inhibition of L1210 cells. Conditions: Mus musculus. It is filed as functional.
Data set [15] addresses T1, Dihydrofolate reductase. Nature of the data set: Tested for inhibition of dihydrofolate reductase enzyme from mouse.

In general, MIC50 refers to the lowest concentration that inhibits either 50% of growth or 50% of the strains tested, depending on the study. Low readings indicate greater potency, high ones weaker potency. One may read the Vmax as the rate approached at saturating substrate. Usually Ki stands for the dissociation constant of the complex between target and ligand, obtained from inhibition or displacement. The low end stands for higher affinity, the high end for lower affinity. As a reminder, the ILS is the gain in survival time of treated over control animals, in per cent. For orientation: Km means the concentration of substrate that gives half-maximal velocity. A word on the IC50: it is the point on the concentration scale where inhibition reaches its midpoint.

Dihydrofolate reductase (Lactobacillus casei), sequence (P00381 whole entry): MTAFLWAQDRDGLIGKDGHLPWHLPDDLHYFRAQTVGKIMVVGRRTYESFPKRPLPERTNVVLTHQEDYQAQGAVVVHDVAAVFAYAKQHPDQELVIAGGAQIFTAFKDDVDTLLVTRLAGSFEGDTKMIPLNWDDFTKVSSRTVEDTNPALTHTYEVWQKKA

For `CC(C)(Cc1cnc2nc(N)nc(N)c2n1)c1ccc(C(=O)NC(CCC(=O)O)C(=O)O)cc1` (stereo not given), the MST came to 15.9 days in the data set with L1210 [1] and 16.1 days with L1210 [7]. Besides, the MIC50 against L1210 [2] stood at 0.00058 µM (≈ 0.271 ng/mL). The Concentration with Enterococcus faecium [3] is more than 2000 ng/mL; in data set [6] it was 0.25 ng/mL; in the data set with Lacticaseibacillus casei, 0.04 ng/mL; in the data set on Enterococcus faecium [9], 0.25 ng/mL. Moreover, in data set [4], the Vmax worked out at 8.31 nM/min/g. This molecule also had a Ki at Dihydrofolate reductase [5] of 0.0026 nM. Moreover, the ILS at 3 mg/kg in the data set with L1210 [8] came out at 143%. Moreover, the K in data set [10] was found to be 0.24 min⁻¹. The Km in data set [11] was 0.93 µM. This molecule also yielded an IC50 in data set [12] of 27 nM. The molecule also had an ILS at 15 mg/kg with L1210 [13] of 135%.
Turning to `CC(Cc1cnc2nc(N)nc(N)c2n1)c1ccc(C(=O)NC(CCC(=O)O)C(=O)O)cc1` (stereo not given), the MST with L1210 [1] amounted to 22.1 days; in the data set on L1210 [7], 18.6 days. Moreover, the MIC50 with L1210 [2] was determined as 0.00051 µM (≈ 0.231 ng/mL). For the same molecule, the Concentration in the data set with Enterococcus faecium [3] was 200 ng/mL; in data set [6], 0.32 ng/mL; in the data set with Lacticaseibacillus casei, 0.03 ng/mL; with Enterococcus faecium [9] it was 0.32 ng/mL. Besides, in data set [4], the Vmax was 8.02 nM/min/g. The same molecule came in with a Ki on Dihydrofolate reductase [5] of 0.0024 nM. This molecule yielded an ILS at 3 mg/kg with L1210 [8] of 181%. The molecule also had a K in [10] of 0.23 min⁻¹. The Km in data set [11] was determined as 1.01 µM. The molecule further gave an IC50 in data set [12] of 28 nM. This molecule also had an ILS at 15 mg/kg in the data set on L1210 [13] of 235%.
`Nc1nc(N)c2nc(CCc3ccc(C(=O)N[C@@H](CCC(=O)O)C(=O)O)cc3)cnc2n1`: the MST amounted to 18.4 days in the data set with L1210 [1] and 17.3 days in the data set with L1210 [7]. In addition, the MIC50 against L1210 [2] was 0.00061 µM (≈ 0.268 ng/mL). Moreover, the Concentration is more than 2000 ng/mL in the data set on Enterococcus faecium [3], 0.2 ng/mL in [6], 0.01 ng/mL with Lacticaseibacillus casei and 0.2 ng/mL with Enterococcus faecium [9]. Further, in [4], the maximum rate (Vmax) turned out to be 8.13 nM/min/g. This molecule also came in with a Ki at Dihydrofolate reductase [5] of 0.0021 nM. Moreover, in the data set with L1210 [8], the ILS at 3 mg/kg was determined as 162%. Also, the K in data set [10] turned out to be 0.23 min⁻¹. For the same molecule, the Km in data set [11] was found to be 0.96 µM. The ILS at 15 mg/kg in the data set on L1210 [13] is 178%.
For `CCC(Cc1cnc2nc(N)nc(N)c2n1)c1ccc(C(=O)NC(CCC(=O)O)C(=O)O)cc1` (stereo not given), the MST turned out to be 20.5 days in the data set on L1210 [1] and 17.8 days in the data set with L1210 [7]. For the same molecule, in the data set on L1210 [2], the MIC50 is 0.00055 µM (≈ 0.257 ng/mL). The Concentration with Enterococcus faecium [3] came out at 1300 ng/mL; in data set [6] it was 0.37 ng/mL; in the data set on Lacticaseibacillus casei it was 0.08 ng/mL; in the data set on Enterococcus faecium [9], 0.37 ng/mL. The Vmax in [4] came to 7.8 nM/min/g. The ILS at 3 mg/kg in the data set on L1210 [8] was 170%. The K in [10] was 0.2 min⁻¹. In addition, in data set [11], the Km was 0.89 µM. In addition, the IC50 in data set [12] worked out at 27 nM. Further, the ILS at 15 mg/kg in the data set on L1210 [13] was determined as 211%.
Turning to `CC(Cc1cnc2nc(N)nc(N)c2n1)c1ccc(C(=O)O)cc1` (stereo not given), the Concentration in the data set on Enterococcus faecium [3] turned out to be 60 ng/mL; in [6], 0.72 ng/mL; in the data set on Lacticaseibacillus casei, 5 ng/mL; in the data set with Enterococcus faecium [9] it was 0.72 ng/mL. In [12], the IC50 was found to be 420 nM.
With `CC(C)(Cc1cnc2nc(N)nc(N)c2n1)c1ccc(C(=O)O)cc1`, the Concentration in the data set with Enterococcus faecium [3] came out at 40 ng/mL; in data set [6] it was 0.5 ng/mL; in the data set with Lacticaseibacillus casei, 3.6 ng/mL; with Enterococcus faecium [9], 0.5 ng/mL. This molecule yielded an IC50 in [12] of 440 nM.
Turning to `CN(Cc1cnc2nc(N)nc(N)c2n1)c1ccc(C(=O)N[C@@H](CCC(=O)O)C(=O)O)cc1` [METHOTREXATE], the values for the MST in the data set with L1210 [1] and in the data set with L1210 [7] were 16.6 days and 15.8 days, respectively. The MIC50 in the data set on L1210 [2] worked out at 0.00271 µM (≈ 1.23 ng/mL). In addition, the Concentration in the data set on Enterococcus faecium [3] is 3500 ng/mL; in the data set on Lacticaseibacillus casei, 0.01 ng/mL; in the data set with Enterococcus faecium [9], 0.05 ng/mL. In addition, in data set [4], the Vmax was 7.77 nM/min/g. Moreover, in the data set on L1210 [8], the ILS at 3 mg/kg was found to be 139%. Moreover, the K in data set [10] is 0.19 min⁻¹. Moreover, in data set [11], the Km stood at 3.42 µM. Besides, in the data set on L1210 [13], the increase in life span (ILS) at 15 mg/kg amounted to 151%.
In the data set on L1210 [14], `Nc1nc(N)c2nc(CNc3ccc(C(=O)N[C@@H](CCC(=O)O)C(=O)O)cc3)cnc2n1` [AMINOPTERIN] came in with an MIC50 of 0.00061 µM (≈ 0.269 ng/mL). Further, the Ki at Dihydrofolate reductase [15] was 0.0023 nM. The Vmax in [4] came out at 7.83 nM/min/g. This molecule yielded a K in [10] of 0.21 min⁻¹. Also, the Km in data set [11] is 1.21 µM.
Consider `CCC(Cc1cnc2nc(N)nc(N)c2n1)c1ccc(C(=O)O)cc1` (stereo not given), for which the Concentration was 50 ng/mL with Enterococcus faecium [3], 0.9 ng/mL in [6], 5.4 ng/mL in the data set on Lacticaseibacillus casei and 0.9 ng/mL with Enterococcus faecium [9]. The molecule also displayed an IC50 in [12] of 380 nM.
